Data from patent publication EP2398468B1, “PHARMACEUTICAL COMPOSITIONS COMPRISING PRASUGREL BASE OR ITS PHARMACEUTICALLY ACCEPTABLE ACID ADDITION SALTS AND PROCESSES FOR THEIR PREPARATION” (KRKA, D.D., Novo Mesto, priority 2009, dated 2010).
Values after ≈ are worked out from the molar mass of the structure shown. Counter-ions that a name gives are not always drawn. Like-named read-outs stand apart in the source and are kept apart here.

What was measured:
physchem = assay type: physicochemical
[1] = Equilibrium solubility in aqueous solutions, shaking flask method for 24 hours; assay type: physicochemical; settings: for Solubility (mg/mL) at 37°C / Solubility (mg/mL) room temp / solubility at 24 h: 24 hours; for solubility at 24 h: thermodynamic from solid
Experimental: The solubility of prasugrel base and some of its pharmaceutically acceptable salts in different dissolution media (in mg/mL) at room temperature and 37°C is given in Table 2. The equilibrium solubility of prasugrel base and some of its salts were checked in aqueous solutions at room temperature and 37 °C with shaking flask method for 24 hours (Heidoplh Incubator 1000, Unimax 1010). In comparison with prasugrel base, all salts are better soluble in lower pH values. In higher pH values the solubility decreases and at pH 6.8 the compound is slightly soluble to practically insoluble. […]

CC(=O)Oc1cc2c(s1)CCN(C(C(=O)C1CC1)c1ccccc1F)C2 (stereo not drawn) [Prasugrel base, 2-acetoxy-5-([alpha]-cyclopropylcarbonyl-2-fluorobenzyl)-4,5,6,7-tetrahydrothieno[3,2-c]pyridine]
pKa (physchem): 5.4
Solubility (mg/mL) at 37°C ([1]; AGJ (without pepsin) pH 1.2, 37°C): 3.23 mg/mL (≈ 8650 µM)
Solubility (mg/mL) room temp ([1]; AGJ (without pepsin) pH 1.2, room temperature): 1.54 mg/mL (≈ 4120 µM)
Solubility (mg/mL) at 37°C ([1]; Acetate Buffer solution pH 4.0, 37°C): 0.03 mg/mL (≈ 80.3 µM)
Solubility (mg/mL) room temp ([1]; Acetate Buffer solution pH 4.0, room temperature): 0.03 mg/mL (≈ 80.3 µM)

CC(=O)Oc1cc2c(s1)CCN(C(C(=O)C1CC1)c1ccccc1F)C2 (stereo not shown) [Prasugrel hydrochloride]
Solubility (mg/mL) at 37°C ([1]; AGJ (without pepsin) pH 1.2, 37°C, hydrochloride): 4.43 mg/mL
Solubility (mg/mL) room temp ([1]; AGJ (without pepsin) pH 1.2, room temperature, hydrochloride): 5.00 mg/mL
Solubility (mg/mL) at 37°C ([1]; Acetate Buffer solution pH 4.0, 37°C, hydrochloride): 0.08 mg/mL
Solubility (mg/mL) room temp ([1]; Acetate Buffer solution pH 4.0, room temperature, hydrochloride): 0.07 mg/mL

CC(=O)Oc1cc2c(s1)CCN(C(C(=O)C1CC1)c1ccccc1F)C2 (stereo not shown) [Prasugrel hydroiodide]
Solubility (mg/mL) at 37°C ([1]; AGJ (without pepsin) pH 1.2, 37°C, hydroiodide): 3.660 mg/mL
Solubility (mg/mL) room temp ([1]; AGJ (without pepsin) pH 1.2, room temperature, hydroiodide): 2.600 mg/mL
Solubility (mg/mL) at 37°C ([1]; Acetate Buffer solution pH 4.0, 37°C, hydroiodide): 0.166 mg/mL
Solubility (mg/mL) room temp ([1]; Acetate Buffer solution pH 4.0, room temperature, hydroiodide): 0.132 mg/mL
Solubility (mg/mL) at 37°C ([1]; Phosphate Buffer solution pH 6.8, 37°C, hydroiodide): 0.0018 mg/mL
Solubility (mg/mL) room temp ([1]; Phosphate Buffer solution pH 6.8, room temperature, hydroiodide): 0.00316 mg/mL
equilibrium solubility ([1]; compared with hydrochloride salt of prasugrel): comparable with solubility of hydrochloride salt of prasugrel

CC(=O)Oc1cc2c(s1)CCN(C(C(=O)C1CC1)c1ccccc1F)C2 (stereo not shown) [Prasugrel hydrobromide]
solubility at 24 h ([1]; AGJ (without pepsin) pH 1.2, 37 °C, pH 1.2, simulated gastric fluid, AGJ (without pepsin) pH 1.2, 37°C, read-out: Solubility (mg/mL) at 37°C): 4.1 mg/mL
Solubility (mg/mL) room temp ([1]; AGJ (without pepsin) pH 1.2, room temperature, hydrobromide): 3.924 mg/mL
Solubility (mg/mL) at 37°C ([1]; Acetate Buffer solution pH 4.0, 37°C, hydrobromide): 0.153 mg/mL
Solubility (mg/mL) room temp ([1]; Acetate Buffer solution pH 4.0, room temperature, hydrobromide): 0.138 mg/mL
Solubility (mg/mL) at 37°C ([1]; Phosphate Buffer solution pH 6.8, 37°C, hydrobromide): 0.009 mg/mL
solubility at 24 h ([1]; phosphate buffer solution pH 6.8, pH 6.8, aqueous buffer, Phosphate Buffer solution pH 6.8, room temperature, read-out: Solubility (mg/mL) room temp): 0.003 mg/mL
